Test results from patent publication US20080039496A1, “Method of Modulating Neurite Outgrowth by the use of a Galanin-3 Receptor Antagonist” (priority 2006, published 2008).

How the values were obtained:
5-HT = conditions: Rowley et al. Br J Pharmacol 2005, P127; cited from earlier work
Hes5 [1] = experiment: qPCR analysis of Hes5 expression in NS-1 cells; assay type: cell-based
Protocol: NS-1 cells were plated into collagen I-coated 6 well plate (BD BioCoat) at 150,000 cells per well. 48 hr post NGF treatment at 200 ng/mL NS-1 cells were treated with HT-2157 for 2 hr, 4 hr or 24 hr at concentrations as indicated followed by RNA isolation using Ambion's RNAqueous-4PCR kit. Reverse transcription reactions were performed with Taqman reverse transcription reagents (Applied Biosystems). qPCR was performed on a 7900 real-time PCR machine using Optical 96 well reaction plates (Applied Biosystems). Expression levels were normalized to mouse TBP transcript levels.

NGFβ = experiment: qPCR analysis of NGFβ mRNA in cultured mouse hippocampal neurons; assay type: cell-based; conditions: 10 μM, vs vehicle
Protocol: (§1) C57B1/6 or CD1 mouse embryonic (E17.5) hippocampal neurons were purchased from QBM Cell Science (University of Ottawa, Ontario, Canada). Neurons were cultured on poly-D-lysine coated 96 or 24 well plates in serum free Neurobasal medium supplemented with 2% B27, 500 μM L-glutamine, and 1 mM pyruvate. Cells were plated at a density of 20,000 per well on 96 well plates (for neurite outgrowth assays), and at 100,000 per well on […] (for qPCR analysis). For neurite outgrowth assays, neurons were cultured for 2 days and then stimulated for 24 hours. For gene-expression assays, neurons were grown for 8 days and then stimulated with HT-2157 or Vehicle.
(§2) RNA was isolated from cultured neurons at the indicated timepoint after HT-2157 treatment. Per well, one RNA preparation was performed using the QIAgen RNeasy kit (Qiagen) according to the manufacturer's specifications. cDNA was generated using TaqMan Reverse transcriptase kit (Applied Biosystems). 2 real-time PCR reactions per RNA/cDNA replication were performed using the ABI prism and SDS 2.1 software. ABI assays on demand (Applied Biosystems) were used to test the mRNA levels of BDNF, NGFβ, and Hes5. The average CT value for each cDNA sample was determined. Data was then normalized to TATA binding protein (TBP) and ΔCT values were determined. mRNA levels were normalized to a vehicle (0.2% DMSO) treated control group.

NS1 cells = experiment: Neurite outgrowth assay in NS1 cells (Example 2); assay type: cell-based; conditions: 3 μM and 10 μM
Protocol: Neuroscreen 1 (NS1) Cells (Cellomics Inc.) were cultured on collagen type I coated 75 cm^2 plastic flasks (Biocoat, Becton Dickinson) in a humidified incubator at 37° C. in 5% CO2. Cells were cultured in RPMI complete cell culture medium (Cambrex) supplemented with 10% heat-inactivated horse serum (Invitrogen), 5% heat-inactivated fetal bovine serum (Cellgro), and 2 mM L-glutamine (Cambrex). For expansion, the cells were trypsinized and split at 80% confluence. The cell culture media was changed every 2 to 3 days.
NS1 cells were stimulated with nerve growth factor to induce differentiation into a neuronal phenotype. NS1 cells were harvested as if they were being passaged and then counted using a Coulter counter (Becton Dickinson Coulter Z1). Cells were seeded in 96-well collagen I coated plates at a density of 2000 cells per well in volume of 200 μl. RPMI media was supplemented with 200 ng/ml nerve growth factor (NGFβ, Sigma). NS1 cells were incubated for 72 hours to allow differentiation to a neuronal phenotype. NGFβ was then diluted to 50 ng/ml and the cells were treated with siRNA or HT-2157, respectively.
(§3) Neurite outgrowth assays were performed using the Cellomics Arrayscan II Vti HCS scanner. Cells were stained using the HitKit™ HCS reagent kit (Cellomics) according to the manufactures specifications. The assay is based on immunofluorescence using an antibody that has been validated to specifically label both neurites and neuronal cell bodies. Briefly, cells were fixed in 3.7% formaldehyde and nuclei stained with Hoechst dye. Cells were then washed in neurite outgrowth buffer and neurites stained with Cellomics' proprietary primary antibody for neurite outgrowth high content screening. After 1 hour of incubation with the primary antibody, the cells were washed again and then incubated with fluorescently labeled secondary antibody solution for 1 hour. Antibody-stained 96-well plates were store at 4° C. in the dark until scanning. Plates were scanned using Cellomics ArrayScan II Vti HCS scanner. The neurite outgrowth assay uses two channels to carry out the scan. Channel 1 detects the Hoechst Dye and is used by the software to identify cells and for automated focusing. Channel 2 detects the FITC fluorescence of the secondary antibody and is used by the software to calculate all data generated in reference to neurites.

[2] = test system: PC12 sub-clone, Neuroscreen-1 (NS-1) cells; experiment: Neurite outgrowth assay in NS-1 cells (Example 1); assay type: cell-based; conditions: NS-1 cells with 200 ng/mL NGF, fixed 24 hr post treatment, various concentrations; dose-dependent
Protocol: PC12 sub-clone, Neuroscreen-1 (NS-1) cells were plated into collagen I-coated 96 well plate (BD BioCoat) at 5,000 cells per well in RPMI complete medium with 200 ng/mL NGF. 48 hr later NS-1 cells were treated with HT-2157 at various concentrations and were subsequently fixed 24 hr post treatment.
(§4) Following fixation, Cellomics's Neurite Outgrowth reagent kit was used to label cells by a primary antibody specific for neurons. The cell nuclei were labeled by Hoechst 33342. Fluorescently labeled cells were then imaged and analyzed using Cellomics's Neurite Outgrowth and Extended Neurite Outgrowth Bioapplications on the ArrayScan HCS Reader. Images for quantitative HCS analysis were collected on the ArrayScan HCS Reader using a 10× or a 20× microscope objective.

5-HT transmission = conditions: Rowley et al. Br J Pharmacol 2005, P125; cited from earlier work
Hes5 [3] = experiment: qPCR analysis of Hes5 mRNA in cultured mouse hippocampal neurons; assay type: cell-based; set-up: dose or concentration left out as unconfirmed; conditions: vs vehicle
Protocol: as §1, §2

GalR3 = experiment: Western blot analysis of GalR3 expression in NS1 cells; assay type: cell-based; conditions: 24 hours after treatment
Protocol: Cultured NS1 cells were homogenized in RIPA buffer (Upstate Biotechnology) containing proteinase inhibitors (Roche). Protein concentrations were determined using the Biorad DC protein assay kit (Biorad). 20 μg of protein-lysate were separated by SDS poly-acrylamide gel electrophoresis (SDS-PAGE) and blotted onto nylon membranes. Western blots were blocked with 5% non-fat dry milk in Tris-buffered saline containing 0.05% Tween 20 (TBS-T) and the primary antibodies applied at 4° Celsius over night. Blots were probed with horseradish peroxidase (HRP) coupled secondary antibodies at room temperature for 1 h, and developed using the SuperSignal® West Pico Chemiluminescent Substrate (Pierce). We used a polyclonal antibody against GalR3 (Alpha Diagnostics). Blots were normalized to β-actin (Sigma).

BDNF = experiment: qPCR analysis of BDNF mRNA in cultured mouse hippocampal neurons; assay type: cell-based; conditions: 10 μM, vs vehicle
Protocol: as §1, §2

[4] = test system: cryopreserved mouse hippocampal neurons; experiment: Neurite outgrowth assay in cryopreserved mouse hippocampal neurons (Example 1); assay type: cell-based; conditions: fixed 48 hr post treatment, various concentrations
Protocol: The cryopreserved mouse hippocampal neurons were plated into poly-L-lysine-coated 96 well plate (BD BioCoat) at 35,000 cells per well in Neurobasal/B27 medium (Invitrogen). 24 hr later the neurons were treated with HT-2157 at various concentrations and were subsequently fixed 48 hr post treatment.
as §4

[5] = test system: cultured mouse hippocampal neurons; experiment: Neurite outgrowth assay in cultured mouse hippocampal neurons (Example 2); assay type: cell-based; conditions: 100 ng/ml for 24 hours
Protocol: as §1, §3

O=C1C(=Nc2cccc(C(F)(F)F)c2)c2ccccc2N1c1ccccc1 [HT-2157]
extracellular levels of 5-HT in various brain regions (5-HT): increase | mRNA levels of Hes5 (Hes5 [1]; NS1 cells, 2 hours and 4 hours after treatment with 3 or 10 μM, compared to vehicle): reduced | Hes5 mRNA (Hes5 [1]; NS1 cells, 24 hours after treatment): returned to baseline levels | Hes5 expression (Hes5 [1]; NS-1 cells, treatment at 2 hr and 4 hr, time- and dose-dependent): down-regulated | NGFβ mRNA levels (NGFβ): significantly increased | average neurite length per cell (NS1 cells): increase | number of neurite branch points per cell (NS1 cells): increase | number of neurites per cell (neurite count) (NS1 cells): increase | total neurite length per cell (NS1 cells): increase | neurite branch point [2]: increase | neurite count [2]: increase | neurite length [2]: increase | inhibitory effect of Galanin on 5-HT transmission (5-HT transmission): antagonize | Hes5 mRNA levels (Hes5 [3]): significantly reduced | Expression of GalR3 (GalR3): not affected | BDNF mRNA levels (BDNF): significantly increased | neurite length [4]: significantly increased

NGFβ: nerve growth factor β, neurotrophin (Sigma)
branch points [5]: increased | neurite length [5]: increased | number of neurites per cell [5]: increased
